Test results as given in ChEMBL document CHEMBL1201862, “PubChem BioAssay data set” (2004).
Calls of active or inactive are those of the source.

How the values were obtained:
Cytochrome P450 3A4 = Cytochrome P450 3A4 (Homo sapiens, UniProt P08684);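 further: CYP3A4 tested as one member of a cytochrome P450 panel screen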
Cytochrome P450 2C9 = Cytochrome P450 2C9 (Homo sapiens, UniProt P11712)
[1] = tested on: Streptococcus sp. 'group A'; experiment: growth inhibition of control SK(-) GAS strain, dose response, counter-screen for streptokinase expression inhibitor project, luminescence, kanamycin, BacTiterGlo, confirmation (AID 1900); assay type: functional, organism-based
Streptokinase A = target: T1, Streptokinase A (Streptococcus pyogenes serotype M1, UniProt P10520); experiment: S. pyogenes streptokinase expression inhibitors, potency, dose response, plasminogen activation absorbance, OD405 (AID 1914); assay type: functional, Streptococcus pyogenes M1 GAS;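 further: secreted streptokinase activity via plasminogen activation per viability signal from cell pellet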
T1 sequence (P10520 whole entry): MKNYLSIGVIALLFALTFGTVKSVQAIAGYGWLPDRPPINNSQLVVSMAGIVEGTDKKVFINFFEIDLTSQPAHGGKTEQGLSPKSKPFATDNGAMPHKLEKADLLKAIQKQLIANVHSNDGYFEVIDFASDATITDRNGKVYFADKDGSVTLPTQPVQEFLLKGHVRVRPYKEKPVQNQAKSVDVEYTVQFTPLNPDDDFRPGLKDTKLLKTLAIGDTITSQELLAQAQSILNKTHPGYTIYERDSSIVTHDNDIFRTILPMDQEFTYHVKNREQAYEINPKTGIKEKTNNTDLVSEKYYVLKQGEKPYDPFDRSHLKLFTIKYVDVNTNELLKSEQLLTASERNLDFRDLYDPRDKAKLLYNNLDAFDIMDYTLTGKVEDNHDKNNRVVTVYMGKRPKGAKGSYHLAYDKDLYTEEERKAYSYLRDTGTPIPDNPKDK

Streptococcus = experiment: Group A Streptococcus viability loss, dose response, counter-screen for streptokinase expression inhibitor project, luminescence, BacTiterGlo (AID 1915); assay type: functional, organism-based;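 further: potency for reduction of bacterial viability or growth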
[2] = target: T2, Heat shock factor protein 1 (Mus musculus, UniProt P38532); experiment: inhibition of MG132-induced HSE-luciferase signal, confirmation, cell-based, NIH3T3, luminescence, dose retest (AID 2382); assay type: functional;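 further: NIH3T3 fibroblasts with HSF1-driven luciferase reporter stressed by proteasome inhibitor MG132; luminescence from HSF1-driven luciferase expression after 8 hours of MG132 stress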
T2 sequence (P38532 whole entry): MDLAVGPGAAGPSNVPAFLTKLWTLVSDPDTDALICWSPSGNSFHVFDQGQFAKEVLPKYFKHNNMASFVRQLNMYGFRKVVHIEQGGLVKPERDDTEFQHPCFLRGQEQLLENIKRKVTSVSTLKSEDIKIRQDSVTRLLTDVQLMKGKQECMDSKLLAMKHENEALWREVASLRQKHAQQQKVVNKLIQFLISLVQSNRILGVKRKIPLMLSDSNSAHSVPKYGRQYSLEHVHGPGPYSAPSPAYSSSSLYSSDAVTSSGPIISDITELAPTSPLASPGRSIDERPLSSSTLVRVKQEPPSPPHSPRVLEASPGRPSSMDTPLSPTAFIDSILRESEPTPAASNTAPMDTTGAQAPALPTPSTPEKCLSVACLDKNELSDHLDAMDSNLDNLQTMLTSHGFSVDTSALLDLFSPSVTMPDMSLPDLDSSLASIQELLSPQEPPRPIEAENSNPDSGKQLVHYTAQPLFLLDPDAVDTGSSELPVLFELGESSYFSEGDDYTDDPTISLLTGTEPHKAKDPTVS

Cytochrome P450 2C19 = Cytochrome P450 2C19 (Homo sapiens, UniProt P33261); experiment: Cytochrome panel assay with activity outcomes. Panel member name: p450-cyp2c19 Compounds with AC50 equal or less than 10 uM are considered active; assay type: functional
Cytochrome P450 2D6 = Cytochrome P450 2D6 (Homo sapiens, UniProt P10635);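 further: CYP2D6 member of a cytochrome P450 panel assay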
H4 = experiment: Luminescence Cell-Based Dose Response HTS to Identify Activators of 5'UTR Stem-Loop Driven Prion Protein mRNA Translation in H4 Neuroglioblastoma Cells. [Related pubchem assays: 1829 (Project Summary), 1814 (Primary HTS)]; assay type: functional; conditions: Homo sapiens

Chain of Cytochrome P450 3A4 (P08684 whole entry): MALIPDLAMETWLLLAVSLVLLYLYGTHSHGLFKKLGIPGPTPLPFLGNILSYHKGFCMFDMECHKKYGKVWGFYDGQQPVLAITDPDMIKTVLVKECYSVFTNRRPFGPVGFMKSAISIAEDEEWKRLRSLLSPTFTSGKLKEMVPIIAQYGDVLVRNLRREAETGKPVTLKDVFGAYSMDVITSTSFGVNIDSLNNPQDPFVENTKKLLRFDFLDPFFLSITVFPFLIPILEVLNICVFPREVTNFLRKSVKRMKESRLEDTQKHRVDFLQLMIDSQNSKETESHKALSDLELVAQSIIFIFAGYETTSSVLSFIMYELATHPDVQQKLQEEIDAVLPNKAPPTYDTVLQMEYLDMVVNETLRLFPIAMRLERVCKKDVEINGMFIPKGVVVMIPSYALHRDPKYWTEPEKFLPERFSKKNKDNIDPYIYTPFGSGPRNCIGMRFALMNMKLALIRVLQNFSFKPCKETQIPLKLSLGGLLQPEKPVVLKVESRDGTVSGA
Chain of Cytochrome P450 2C9 (P11712 whole entry): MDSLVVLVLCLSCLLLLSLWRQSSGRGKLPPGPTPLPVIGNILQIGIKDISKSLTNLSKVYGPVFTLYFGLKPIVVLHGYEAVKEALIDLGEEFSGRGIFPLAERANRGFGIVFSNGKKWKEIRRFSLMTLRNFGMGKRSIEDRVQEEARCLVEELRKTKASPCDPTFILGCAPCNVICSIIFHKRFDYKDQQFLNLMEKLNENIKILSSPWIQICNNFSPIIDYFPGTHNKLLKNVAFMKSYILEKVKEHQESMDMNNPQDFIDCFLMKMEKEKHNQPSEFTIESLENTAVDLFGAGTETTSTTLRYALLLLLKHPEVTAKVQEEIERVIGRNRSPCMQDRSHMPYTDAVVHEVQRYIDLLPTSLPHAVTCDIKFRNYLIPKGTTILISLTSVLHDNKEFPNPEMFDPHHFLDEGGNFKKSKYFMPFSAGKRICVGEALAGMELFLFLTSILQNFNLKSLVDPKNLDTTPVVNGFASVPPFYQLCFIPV
Chain of Cytochrome P450 2D6 (P10635 whole entry): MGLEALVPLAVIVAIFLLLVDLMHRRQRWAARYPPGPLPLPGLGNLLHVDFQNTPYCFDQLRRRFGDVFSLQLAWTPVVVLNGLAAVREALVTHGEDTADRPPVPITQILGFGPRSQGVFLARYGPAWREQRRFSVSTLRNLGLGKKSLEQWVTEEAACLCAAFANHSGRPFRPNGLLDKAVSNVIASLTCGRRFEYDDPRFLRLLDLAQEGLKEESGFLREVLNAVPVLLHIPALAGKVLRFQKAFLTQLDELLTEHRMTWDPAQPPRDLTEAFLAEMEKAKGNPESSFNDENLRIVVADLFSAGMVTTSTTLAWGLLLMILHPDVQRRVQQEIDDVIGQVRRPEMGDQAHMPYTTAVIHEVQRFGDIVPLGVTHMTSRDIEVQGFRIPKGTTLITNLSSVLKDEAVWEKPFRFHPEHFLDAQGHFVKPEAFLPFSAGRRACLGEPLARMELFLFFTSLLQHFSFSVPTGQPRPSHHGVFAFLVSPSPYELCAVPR
Chain of Cytochrome P450 2C19 (P33261 whole entry): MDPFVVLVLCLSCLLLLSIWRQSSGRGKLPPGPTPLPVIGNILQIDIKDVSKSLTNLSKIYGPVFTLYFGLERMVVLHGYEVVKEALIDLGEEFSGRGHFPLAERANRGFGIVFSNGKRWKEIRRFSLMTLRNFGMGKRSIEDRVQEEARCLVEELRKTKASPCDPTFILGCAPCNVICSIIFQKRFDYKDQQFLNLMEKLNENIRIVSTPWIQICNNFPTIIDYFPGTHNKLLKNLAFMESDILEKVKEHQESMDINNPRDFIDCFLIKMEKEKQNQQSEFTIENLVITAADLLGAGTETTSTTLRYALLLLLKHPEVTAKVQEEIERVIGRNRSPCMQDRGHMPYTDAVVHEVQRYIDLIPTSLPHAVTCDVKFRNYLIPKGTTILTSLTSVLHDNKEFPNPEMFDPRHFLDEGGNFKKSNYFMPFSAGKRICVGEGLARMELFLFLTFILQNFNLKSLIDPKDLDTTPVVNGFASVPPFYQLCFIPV

O=C(Nc1ccccc1)N1CCCC2(CCN(C(=O)c3ccco3)CC2)C1
AC50 (Cytochrome P450 3A4): 15.8 µM (inconclusive) | AC50 (Cytochrome P450 2C9): 25.1 µM (inconclusive)

N#Cc1ccccc1-c1ccc2ncnc(NCc3cccnc3)c2c1
AC50 (Cytochrome P450 3A4): 2 µM (inconclusive)

O=C(CSc1nnc(CNC(=O)c2ccc(F)cc2)o1)NCc1ccccc1
EC50 [1]: > 150 µM (not active) | EC50 (Streptokinase A): > 150 µM (not active) | EC50 (Streptococcus): > 150 µM (not active)

Cc1ccc(Cn2c(Sc3ncccn3)nc3c2c(=O)[nH]c(=O)n3C)cc1
EC50 [2]: > 195 µM (not active)

O=C(c1cc(Br)c[nH]1)N1CCSCC1
EC50 [2]: > 195 µM (not active)

COc1ccc(/C(C)=N/NC(=O)CNC(=O)/C=C\c2ccccc2)c(OC)c1
EC50 [2]: > 195 µM (not active)

CC[C@H](c1ccccc1)c1cc(C(C)(C)C)cc(C(C)(C)C)c1O
AC50 (Cytochrome P450 3A4): 5.01 µM (inconclusive) | AC50 (Cytochrome P450 2C9): 7.94 µM (inconclusive)

CCOc1ccc(N(CC(=O)NN=C2CCCC2)S(C)(=O)=O)cc1
EC50 [2]: > 195 µM (not active)

CCN(CC(=O)Nc1ccccc1C(F)(F)F)C(=O)c1cc(-c2ccccc2)nn1-c1ccccc1
EC50 [1]: 19.9 µM (active) | EC50 (Streptokinase A): 23.9 µM (active) | EC50 (Streptococcus): > 150 µM (not active)

Cc1cc(-c2cccs2)nc(-n2cccc2)n1
AC50 (Cytochrome P450 2C19; read-out: AC50): 5.62 µM (inconclusive) | AC50 (Cytochrome P450 3A4): 31.6 µM (inconclusive)

Cc1cc(Nc2ccc(Cl)cc2)nc(N)n1
AC50 (Cytochrome P450 2C19; read-out: AC50): 8.91 µM (inconclusive) | AC50 (Cytochrome P450 3A4): 5.62 µM (inconclusive)

CCn1c(SCC(=O)N2CC(C)OC(C)C2)nc2c3ccccc3nc-2c1O (stereo unspecified)
EC50 [1]: > 150 µM (not active) | EC50 (Streptokinase A): > 150 µM (not active) | EC50 (Streptococcus): > 150 µM (not active)

COc1ccc(C2(C(=O)N3CCOCC3)CCCC2)cc1
AC50 (Cytochrome P450 3A4): 12.6 µM (inconclusive)

CCOC(=O)c1cccc(NC(=S)N2CCN(c3ncc4c(=O)c(C(=O)O)cn(CC)c4n3)CC2)c1
EC50 [1]: 5.98 µM (active) | EC50 (Streptokinase A): > 150 µM (not active) | EC50 (Streptococcus): 29.9 µM (active)

Cc1onc(-c2ccccc2Cl)c1C(=O)Nc1ccc(OCC(=O)N2CCOCC2)cc1
EC50 [2]: > 195 µM (not active)

Cc1ccc(S(=O)(=O)N(C)CC(=O)ONC(=N)c2ccccn2)cc1
AC50 (Cytochrome P450 2C19): inconclusive | AC50 (Cytochrome P450 3A4): 22.4 µM (inconclusive)

C/C(CCN1CCCCc2nc(C)c(C)cc21)=N\OC[C@@H](C)[C@H](OCc1ccccc1)C(C)C
AC50 (Cytochrome P450 3A4): 3.16 µM (inconclusive)

CCN(CC)CCNC(=O)Cn1nc(-c2ccc(C)cc2)ccc1=O
AC50 (Cytochrome P450 2C19): inconclusive | AC50 (Cytochrome P450 2D6): 22.4 µM (inconclusive)

COc1ccc(C(=O)CSc2nnc(CNC(=O)c3ccc(S(=O)(=O)N(C)C)cc3)o2)cc1
EC50 [1]: > 150 µM (not active) | EC50 (Streptokinase A): > 150 µM (not active) | EC50 (Streptococcus): > 150 µM (not active)

N=c1nc(N)nc(N)n1-c1ccc(S(N)(=O)=O)cc1
AC50 (Cytochrome P450 2D6): 3.98 µM (inconclusive)

Cc1ccccc1-c1cc(N(C)Cc2ccco2)ncn1
AC50 (Cytochrome P450 2D6): 39.8 µM (inconclusive)

O=C(OC(C(=O)NC1CCCC1)c1ccncc1)C1=Cc2ccccc2OC1 (stereo unspecified)
EC50 [2]: > 195 µM (not active)

COc1ccc(-c2nnn(CC(=O)NCCc3c[nH]c4ccccc34)n2)cc1OC
AC50 (Cytochrome P450 2D6): 0.0126 µM (inconclusive)

CCNc1ncc2nc(-c3ccc(Cl)cc3)c(=O)n(Cc3cccs3)c2n1
AC50 (Cytochrome P450 2D6): 25.1 µM (inconclusive) | AC50 (Cytochrome P450 2C9): 31.6 µM (inconclusive)

CCCCOc1ccc(/N=C/c2ccc[nH]2)cc1
EC50 [2]: 33 µM (active)

COc1ccc(C(=O)Nc2ccc(S(=O)(=O)N3CCOCC3)cc2)cc1OC
AC50 (Cytochrome P450 2C19; read-out: AC50): 8.91 µM (inconclusive) | AC50 (Cytochrome P450 2D6): 0.00794 µM (inconclusive) | AC50 (Cytochrome P450 2C9): 28.2 µM (inconclusive)

CCCCN(Cc1ccccc1)C(=O)c1cnc2n(c1=O)CCS2
AC50 (Cytochrome P450 2D6): 31.6 µM (inconclusive) | AC50 (Cytochrome P450 2C9): 8.91 µM (inconclusive)

Cn1cccc1C(=O)N1CCC[C@@]2(CCN(Cc3nccs3)C2)C1
AC50 (Cytochrome P450 2D6): 31.6 µM (inconclusive) | AC50 (Cytochrome P450 2C9): 31.6 µM (inconclusive)

COc1cccc(-n2nc(-c3ccnn3-c3cccc(Cl)c3)c(=O)n(C)c2=O)c1
EC50 [2]: > 195 µM (not active)

CCCCNC(=O)C1CC(=O)N(c2ccc(OC)cc2)C1c1ccc(OC)cc1 (stereo unspecified)
AC50 (Cytochrome P450 2C19; read-out: AC50): 25.1 µM (inconclusive) | AC50 (Cytochrome P450 2D6): 15.8 µM (inconclusive) | AC50 (Cytochrome P450 2C9): 25.1 µM (inconclusive)

COCCn1c(N)c(Sc2ccccc2[N+](=O)[O-])c(=O)[nH]c1=O
EC50 [2]: > 195 µM (not active)

CC(C)(C)c1csc(NC2=NS(=O)(=O)c3ccccc32)n1
EC50 (H4): > 120 µM (not active)

O=C(Nc1cc(Sc2ccccn2)cc([N+](=O)[O-])c1)c1ccc([N+](=O)[O-])cc1
AC50 (Cytochrome P450 2C19; read-out: AC50): 5.01 µM (inconclusive) | AC50 (Cytochrome P450 3A4): 7.94 µM (inconclusive) | AC50 (Cytochrome P450 2C9): 10 µM (inconclusive)

CNc1nc(-c2ccccc2CN(C)C)nc2ccccc12
AC50 (Cytochrome P450 3A4): 25.1 µM (inconclusive)

COc1cccc(Cn2c(=O)c(-c3cccc(C#N)c3)nc3cnc(N4CCN(C)CC4)nc32)c1
AC50 (Cytochrome P450 3A4): 25.1 µM (inconclusive)

CCN(c1ccc(OC)cc1)S(=O)(=O)c1nnc(NC(=O)c2ccccc2Cl)s1
EC50 [1]: 9.51 µM (active) | EC50 (Streptokinase A): 5.58 µM (active) | EC50 (Streptococcus): 99.3 µM (active)

O=S(=O)(N=C(Nc1ccccn1)c1ccccc1)c1ccc(Cl)cc1
AC50 (Cytochrome P450 3A4): 1.41 µM (inconclusive) | AC50 (Cytochrome P450 2C9): 11.2 µM (inconclusive)

CO[C@H]1COC(=O)[C@@H](Cc2ccccc2)NC(=O)[C@@H](C)COC(=O)C/C=C\[C@@H]1C
AC50 (Cytochrome P450 3A4): 6.31 µM (inconclusive)

CNC(=O)c1ccsc1NC(=O)c1ccc(Cl)s1
EC50 [2]: > 195 µM (not active)

COc1ccc(CCNCc2ccsc2)cc1OC
EC50 [2]: > 195 µM (not active)

CC(=O)N(NC(=O)c1ccccc1Cl)C1CC(=O)N(c2ccc(C)cc2)C1=O (stereo unspecified)
AC50 (Cytochrome P450 2C19; read-out: AC50): 1 µM (inconclusive) | AC50 (Cytochrome P450 3A4): 20 µM (inconclusive) | AC50 (Cytochrome P450 2C9): 14.1 µM (inconclusive)

CCCn1c(N2CCN(CC(=O)NCc3cccs3)CC2)nc2ccccc21
EC50 [2]: > 195 µM (not active)

CN(CC(=O)Nc1ccc(F)cc1)C(=O)COC(=O)c1cc(S(=O)(=O)N(C)C)ccc1N1CCCC1
EC50 [2]: > 195 µM (not active)

COc1ccc(NC(=O)COC(=O)c2c3c(nc4ccccc24)CCCC3)cc1
AC50 (Cytochrome P450 3A4): 0.891 µM (inconclusive)

CCCc1ccc(Oc2cc(C)nc(N3CCOCC3)n2)cc1
AC50 (Cytochrome P450 2D6): 14.1 µM (inconclusive)

O=c1c(-c2ccc(F)cc2)nc2cnc(N3CCNCC3)nc2n1Cc1ccc(F)cc1
AC50 (Cytochrome P450 2C19; read-out: AC50): 39.8 µM (inconclusive) | AC50 (Cytochrome P450 2D6): 20 µM (inconclusive) | AC50 (Cytochrome P450 2C9): 31.6 µM (inconclusive)

O=C(CN1C(=O)NC(Cc2ccccc2)C1=O)Nc1ccc(OC(F)F)cc1 (stereo unspecified)
EC50 [2]: > 195 µM (not active)

COc1ccc(-c2cc(C3CCN(c4ncccc4[N+](=O)[O-])CC3)[nH]n2)cc1
EC50 [1]: 4.96 µM (active) | EC50 (Streptokinase A): > 150 µM (not active) | EC50 (Streptococcus): 13 µM (active)

COc1ccc(C2/C(=C(\O)c3ccccc3)C(C)=Nc3nc4ccccc4n32)c(OC)c1 (stereo unspecified)
EC50 [1]: 14.5 µM (active) | EC50 (Streptokinase A): > 150 µM (not active) | EC50 (Streptococcus): 37.3 µM (active)

COc1ccc(CCNCC(O)Cn2ccc3ccccc32)cc1OC (stereo unspecified)
EC50 [2]: > 100 µM (not active)

COc1ccc(C=O)cc1COc1ccc(C)cc1[N+](=O)[O-]
AC50 (Cytochrome P450 2D6): 14.1 µM (inconclusive) | AC50 (Cytochrome P450 2C9): 4.47 µM (inconclusive)

O=C(NCCc1ccccc1)C(=O)NN=C1CCCC1
AC50 (Cytochrome P450 2C19; read-out: AC50): 0.355 µM (inconclusive) | AC50 (Cytochrome P450 3A4): 31.6 µM (inconclusive)

O=C(NC1CCCCC1)C(=S)NC1CCCCC1
EC50 (H4): 2.43 µM (active)

N#Cc1cccc(-c2nc(N3CCNCC3)c3ccccc3n2)c1
AC50 (Cytochrome P450 2D6): 39.8 µM (inconclusive)

Cc1cc(C)c2c(n1)sc1c(O)nc(SCc3ccccc3)nc12
EC50 [2]: > 195 µM (not active)

CN1CCN(S(=O)(=O)c2ccc(Oc3ccc(F)c(Cl)c3)nc2)CC1
EC50 [2]: > 195 µM (not active)

N#CCCn1c(=O)c(-c2ccccc2)nc2cnc(OCc3ccccc3)nc21
AC50 (Cytochrome P450 2C19; read-out: AC50): 39.8 µM (inconclusive) | AC50 (Cytochrome P450 3A4): 7.94 µM (inconclusive)
